This is an account of results in patent US20260355239A1, “COMBINATION OF A T CELL THERAPY AND CONTINUOUS OR INTERMITTENT DGK INHIBITOR DOSING” (Juno Therapeutics, Inc., priority 2022, published 2026).

One test has as its system Human venous whole blood. Briefly: Human Whole Blood IFN-γ Assay. The class given is cell-based. The following applies: anti-CD3 + anti-CD28, 24 h, normalized to 3 μM reference compound, read-out: INFg Whole Blood Normalized-Agonist EC50. Here is the method: 9. Human Whole Blood IFN-γ Assay
Human venous whole blood (22.5 μL per well), obtained from healthy donors, was pre-treated with compounds for one hour at 37 °C in a humidified 95% air/5% CO2 incubator. The blood was stimulated with 2.5 μL anti-human CD3 and anti-CD28 mAb at a final concentration of 1 μg/mL each for 24 hours at 37 °C. IFN-γ in the supernatants was measured using AlphLISA kit (Cat #AL217).

In test [1] the test system is anti-CD19 CAR-T cells with K562.CD19, Granta-519 and Raji cells. Briefly: CAR-T cell cytokine production in co-culture (MSD). The class given is cell-based, human.
The test system is the same in test [2]. Briefly: Cytokine production of chronically stimulated, concurrently treated CAR-T cells, 2D co-culture. The class given is cell-based, human. Particulars: concurrent treatment during chronic stimulation; 2D re-challenge, 48 h. The method, then: (§1) To simulate conditions of chronic stimulation, approximately 20,000 anti-CD19 CAR-expressing T cells of a combined CAR-T cell composition produced as described in Example 2 from two healthy adult donors were incubated with 30 µg/mL of plate-bound CAR-specific anti-idiotypic antibody (see, e.g., WO2018/023100) at 37 °C for a period of seven days. During this seven-day period, engineered CAR T cells were concurrently treated with Compound 17(0.1-1000 nM) or a vehicle control added at day 0.
Stimulated CAR T cells were then re-challenged with CD19-expressing tumor cells or tumor spheroids in the absence of Compound 17, and cytolytic activity and cytokine production were assessed.
To assess cytolytic function, the stimulated CAR-T cell composition was co-cultured with various CD19-expressing lymphoma cells at a 2.5:1 effector:target ratio. The tumor cells were engineered to express NucLight Red (NLR) and tumor cell number was monitored by Incucyte®. […] Duplicate values for cell compositions manufactured from the two different healthy donors are shown.
Supernatant was collected after 48 hours from the above co-cultures of chronically stimulated CAR-expressing T cells and CD19-expressing tumor cells. Cytokine production was measured from the supernatant by meso scale discovery (MSD) analysis of the collected cell supernatants. […]

Test [3] has as its system A549.CD19 and Granta-519 tumor spheroids. Nature of the test: Cytolytic activity of chronically stimulated, concurrently treated CAR-T cells, 3D spheroids. The format is cell-based, human. The following applies: concurrent treatment during chronic stimulation, day 9. The method, then:
as §1
To further assess activity of chronically stimulated cell, the chronically stimulated CAR-T cells that had been concurrently treated with DGKi were incubated with A549 CD19+ tumor spheroids or Granta-519 tumor spheroids to rechallenge the CAR-T cells at an effector to target ratio of 1:2 for up to 14 days. The tumor spheroids were engineered to express a red fluorescent dye to permit monitoring of tumor cell lysis by microscopy during the assay.
The antigen-specific cytolytic activity of the chronically stimulated CAR-expressing T cells was assessed by monitoring fluorescence (indicative of tumor cell lysis) over time. The tumor volume (normalized to time zero) was measured as the number of red calibrated units (RCU)×μm^2 area. […] Duplicate values for cell compositions manufactured from the two different healthy donors are shown.

A further test concerns K562.CD19 cells. Briefly: Rescue treatment: cytolytic activity of chronically stimulated CAR-T cells, 2D, K562.CD19. The class given is cell-based, human. Particulars: higher concentrations, 2D co-culture.
The test system of a further test is Raji cells. Nature of the test: Rescue treatment: cytolytic activity of chronically stimulated CAR-T cells, 2D, Raji. The class given is cell-based, human. The following applies: higher concentrations, 2D co-culture. Here is the method:
Anti-CD19 CAR-expressing T cells, produced as described in Example 2, were chronically stimulated with plate-bound CAR-specific anti-idiotypic antibody for seven days as described in Example 3, but in the absence of Compound 17 during chronic stimulation. Instead, chronically stimulated CAR T cells were treated with Compound 17 during re-challenge with CD19-expressing tumor cells, after which cytolytic activity and cytokine production were assessed.
The chronically stimulated CAR-T cells were incubated with various CD19-expressing lymphoma cells at a 2.5:1 effector:target ratio in the presence of DGKi (0-1000 nM). The tumor cells were labeled with NucLight Red (NLR) and tumor cell number was monitored by Incucyte®.

In test [4] the test system is anti-CD19 CAR-T cells with K562.CD19, Granta-519 and Raji cells. Briefly: Rescue treatment: cytokine production of chronically stimulated CAR-T cells, 2D co-culture. The format is cell-based, human. The following applies: 48 h.
Test [5] has as its system Raji lymphoma tumor cells. Nature of the test: In vivo anti-tumor effect of dosing regimens with anti-CD19 CAR T cells, Raji-rFluc NSG mice (Example 6). Here is the method:
The in vivo anti-tumor effects of different dosing regimens for Compound 17 in combination with anti-CD19 CAR T cells were assessed.
Following CAR-T cell administration, mice received one of three different Compound 17 dosing regimens or a vehicle control (n=8 per group). Specifically, mice received Compound 17 or vehicle control once daily (i) on Days 1-14 (“Early”), (ii) on Days 14-42 (“Delayed”), or (iii) on Days 1-28 (“Continuous”) of the combination therapy. All doses of Compound 17 were 0.3 mg/kg and were administered orally. […] Flow cytometry for assessing CD4:CD8 ratio was performed at Day 15.

Test [6] relates to Nalm6 leukemia tumor cells. Nature of the test: In vivo anti-tumor effect with CAR T cells, Nalm6-rFluc NSG mice (Example 10). The method, then:
The in vivo anti-tumor effects of a continuous Compound 17 dosing regimen in combination with anti-CD19 CAR T cells were assessed in a second CD19-expressing tumor model.

The mark [7] stands for this setting: 0.3 mg/kg oral once daily from Day 1, relative to vehicle.
Where [8] appears, read: 0.3 mg/kg oral once daily Days 1-30 with 1×10^6 CAR T cells, vs CAR T cells or Compound 17 alone.

As a reminder, the EC50 is the concentration giving half of the maximal effect. As for `CC[C@H]1CN([C@@H](CC)c2ccc(C(F)(F)F)cc2)[C@H](CC)CN1c1nc(=O)n(C)c2ccc(C#N)nc12` [Compound 17, 4-((2S,5R)-2,5-diethyl-4-((S)-1-(4-(trifluoromethyl)phenyl)propyl)piperazin-1-yl)-1-methyl-2-oxo-1,2-dihydropyrido[3,2-d]pyrimidine-6-carbonitrile], in the test with Human venous whole blood, the EC50 stood at 20 nM. Also, the “production of IFNγ, IL-2 and TNFα” value in test [1] (48 h co-culture with K562.CD19, Granta-519, Raji) is “dose-dependent increase in production of all three cytokines”. For the same compound, the “cytokine production, particularly IL-2, greatest effect” value in test [1] (higher concentrations of Compound 17, Granta-519 cells (low CD19)) is “greatest effect during co-culture with Granta-519 cells”. The “production of IFNγ, IL-2 and TNFα” value in [2] is “dose-dependent increase in production of all three cytokines”. In addition, in test [3], the “cytolytic activity of CAR T cells (normalized tumor volume)” value is listed as “modestly reduced the cytolytic activity of the CAR T cells”. Further, the “cytolytic activity of CAR T cells against K562.CD19 cells” value in the test on K562.CD19 cells is “improved the cytolytic activity of CAR T cells against K562.CD19 and Granta-519 cells”. Besides, the “cytolytic activity of CAR T cells against Raji cells” value in the test on Raji cells is “not Raji cells”. Besides, in [4], the “production of IFNγ, IL-2 and TNFα” value is “dose-dependent increase in production of all three cytokines”. Moreover, the “tumor suppression (tumor control index), Early regimen” value in [5] (0.3 mg/kg oral once daily Days 1-14 with CAR T cells, relative to vehicle) is on record as “enhanced tumor suppression”. Moreover, the “survival, Continuous regimen” value in test [5] (0.3 mg/kg oral once daily Days 1-28 with 1×10^6 CAR T cells) is reported as “improved survival”. The “tumor burden, Continuous regimen” value in test [5] (0.3 mg/kg oral once daily Days 1-28 with CAR T cells) was “reduced tumor burden”. For the same compound, in [5] (0.3 mg/kg oral once daily Days 1-28 with CAR T cells, relative to vehicle), the “tumor suppression (tumor control index), Continuous regimen” value was “enhanced tumor suppression”. Also, the “tumor suppression (tumor control index), Delayed regimen” value in test [5] (0.3 mg/kg oral once daily Days 14-42 with CAR T cells, relative to vehicle) is recorded as “did not”. Further, in test [5] (setting [7]), the “CAR T cell expansion, Day 15, Early or Continuous regimen” value is “increased CAR T cell expansion” and the “CD4:CD8 ratio, Day 15, Early or Continuous regimen” value is given as “increase in CD4:CD8 ratio”. In addition, the “CAR T cell expansion and CD4:CD8 ratio, Day 15, Delayed regimen” value in [5] (single 0.3 mg/kg oral dose, relative to vehicle) was “did not”. For the same compound, the “CAR T cell expansion and/or persistence” value in test [6] (0.3 mg/kg oral once daily Days 1-30 following CAR T cells) is given as “increased CAR T cell expansion and/or persistence”. Further, in test [6] (setting [8]), the survival entry is listed as “improved survival” and the tumor burden entry is “lowered tumor burden”. Besides, in test [6] (0.3 mg/kg with CAR T cells, vs CAR T cells alone), the “tumor suppression (tumor control index)” value was “enhanced tumor suppression”. Further, the “tumor burden vs historical CAR T cell data” value in test [6] (0.3 mg/kg with CAR T cells, vs separate previous experiments without Compound 17) is listed as “lower tumor burden than the mice in the separate previous experiments”. Moreover, the single-agent effects entry in test [6] (0.3 or 0.6 mg/kg oral once daily Days 1-30, without CAR T cells) was “No single-agent effects of Compound 17 were observed”.
